Data as given in the supplement of paper PMC13380429.

What was measured:
[1] = tested on: A549-ACE2 infected with SARS-CoV-2; assay: cell count relative to DMSO; higher = less toxic; conditions: 24 h
Caco-2 [2] = assay: cell viability relative to DMSO; higher = less toxic; conditions: 72 h
Calu-3 [3] = assay: as above; conditions: 72 h
HepG2 [4] = assay: as above; conditions: 72 h
U2OS [5] = assay: as above; conditions: 72 h
Vero E6 [6] = assay: as above; conditions: 72 h
[7] = tested on: A549-ACE2 infected with SARS-CoV-2; assay: SARS-CoV-2 infection rate relative to DMSO; higher = more infection; conditions: 24 h
A549-ACE2 [8] = assay: phospholipidosis EC50; higher = less potent phospholipidosis inducer
A549-ACE2 [9] = assay: drug-induced phospholipidosis relative to tamoxifen; higher = more phospholipidosis
[10] = tested on: A549-ACE2 infected with SARS-CoV-2; assay: morphology score (similarity to uninfected cells); higher = more like uninfected cells; conditions: 24 h
Caco-2 [11] = assay: relative viability EC50 (midpoint between 100% and the lowest measured viability); higher = less toxic; conditions: 72 h
Calu-3 [12] = assay: as above; conditions: 72 h
HepG2 [13] = assay: as above; conditions: 72 h
Vero E6 [14] = assay: as above; conditions: 72 h
Caco-2 [15] = assay: drug sensitivity score (DSS) for viability; higher = more toxic; extreme values may be limits of the assay; conditions: 72 h
Calu-3 [16] = assay: as above; conditions: 72 h
HepG2 [17] = assay: as above; conditions: 72 h
U2OS [18] = assay: as above; conditions: 72 h
Vero E6 [19] = assay: as above; conditions: 72 h
U2OS [20] = assay: relative viability EC50 (midpoint between 100% and the lowest measured viability); higher = less toxic; conditions: 72 h

**Q.** Which results are given for `CCCCCCCCNC(C)C(O)c1ccc(SC(C)C)cc1` (configuration not stated) [suloctidil]?
**A.** cell count ([1]; 0.3 µM): 102%; cell count ([1]; 3 µM): 112%; cell count ([1]; 10 µM): 122%; cell count ([1]; 30 µM): 65%; cell viability (Caco-2 [2]; 1 nM): 105%; cell viability (Caco-2 [2]; 10 nM): 97.3%; cell viability (Caco-2 [2]; 100 nM): 99.4%; cell viability (Caco-2 [2]; 1000 nM): 101%; cell viability (Caco-2 [2]; 10000 nM): 92.6%; cell viability (Calu-3 [3]; 1 nM): 99.4%; cell viability (Calu-3 [3]; 10 nM): 97.1%; cell viability (Calu-3 [3]; 100 nM): 107%; cell viability (Calu-3 [3]; 1000 nM): 57%; cell viability (Calu-3 [3]; 10000 nM): -0.5%; cell viability (HepG2 [4]; 1 nM): 98.7%; cell viability (HepG2 [4]; 10 nM): 109%; cell viability (HepG2 [4]; 100 nM): 98.5%; cell viability (HepG2 [4]; 1000 nM): 119%; cell viability (HepG2 [4]; 10000 nM): 102%; cell viability (U2OS [5]; 1 nM): 98.2%; cell viability (U2OS [5]; 10 nM): 95%; cell viability (U2OS [5]; 100 nM): 99.7%; cell viability (U2OS [5]; 1000 nM): 95.5%; cell viability (U2OS [5]; 10000 nM): 64.5%; cell viability (Vero E6 [6]; 1 nM): 93.8%; cell viability (Vero E6 [6]; 10 nM): 98.3%; cell viability (Vero E6 [6]; 100 nM): 93%; cell viability (Vero E6 [6]; 1000 nM): 98.3%; cell viability (Vero E6 [6]; 10000 nM): 97.4%; SARS-CoV-2 infection rate ([7]; 0.3 µM): 99%; SARS-CoV-2 infection rate ([7]; 3 µM): 83%; SARS-CoV-2 infection rate ([7]; 10 µM): 26%; SARS-CoV-2 infection rate ([7]; 30 µM): 25%; phospholipidosis EC50 (A549-ACE2 [8]; 24 h): 7.11 µM; phospholipidosis EC50 (A549-ACE2 [8]; 48 h): 9.12 µM; phospholipidosis EC50 (A549-ACE2 [8]; 72 h): 12.5 µM; drug-induced phospholipidosis (A549-ACE2 [9]; 0.3 µM, 24 h): 2.27%; drug-induced phospholipidosis (A549-ACE2 [9]; 0.3 µM, 48 h): 4.05%; drug-induced phospholipidosis (A549-ACE2 [9]; 0.3 µM, 72 h): 3.93%; drug-induced phospholipidosis (A549-ACE2 [9]; 0.833333 µM, 24 h): 1.81%; drug-induced phospholipidosis (A549-ACE2 [9]; 0.833333 µM, 48 h): 0.83%; drug-induced phospholipidosis (A549-ACE2 [9]; 0.833333 µM, 72 h): -1.43%; drug-induced phospholipidosis (A549-ACE2 [9]; 3.33333 µM, 24 h): 10.5%; drug-induced phospholipidosis (A549-ACE2 [9]; 3.33333 µM, 48 h): 9.1%; drug-induced phospholipidosis (A549-ACE2 [9]; 3.33333 µM, 72 h): 8.76%; drug-induced phospholipidosis (A549-ACE2 [9]; 6.66667 µM, 24 h): 42.2%; drug-induced phospholipidosis (A549-ACE2 [9]; 6.66667 µM, 48 h): 35.5%; drug-induced phospholipidosis (A549-ACE2 [9]; 6.66667 µM, 72 h): 31.3%; drug-induced phospholipidosis (A549-ACE2 [9]; 10 µM, 24 h): 60%; drug-induced phospholipidosis (A549-ACE2 [9]; 10 µM, 48 h): 57%; drug-induced phospholipidosis (A549-ACE2 [9]; 10 µM, 72 h): 53.9%; drug-induced phospholipidosis (A549-ACE2 [9]; 30 µM, 24 h): 84.3%; drug-induced phospholipidosis (A549-ACE2 [9]; 30 µM, 48 h): 95.6%; drug-induced phospholipidosis (A549-ACE2 [9]; 30 µM, 72 h): 114%; morphology score ([10]; 0.3 µM): 0.02; morphology score ([10]; 3 µM): 0.31; morphology score ([10]; 10 µM): 0.74; morphology score ([10]; 30 µM): 0.13; relative viability EC50 (Caco-2 [11]): > 10 µM; relative viability EC50 (Calu-3 [12]): 1.12 µM; relative viability EC50 (HepG2 [13]): > 10 µM; relative viability EC50 (Vero E6 [14]): > 10 µM; drug sensitivity score (Caco-2 [15]): 0; drug sensitivity score (Calu-3 [16]): 11.1; drug sensitivity score (HepG2 [17]): 0; drug sensitivity score (U2OS [18]): 2.4; drug sensitivity score (Vero E6 [19]): 0

**Q.** What does the source list for `C=CCN(C)CCCCCCOc1ccc(C(=O)c2ccc(Br)cc2)c(F)c1` [Ro-48-8071]?
**A.** cell count ([1]; 0.3 µM): 103%; cell count ([1]; 3 µM): 114%; cell count ([1]; 10 µM): 117%; cell count ([1]; 30 µM): 70%; cell viability (Caco-2 [2]; 1 nM): 97.5%; cell viability (Caco-2 [2]; 10 nM): 101%; cell viability (Caco-2 [2]; 100 nM): 102%; cell viability (Caco-2 [2]; 1000 nM): 81.7%; cell viability (Caco-2 [2]; 10000 nM): 45.9%; cell viability (Calu-3 [3]; 1 nM): 95.1%; cell viability (Calu-3 [3]; 10 nM): 95.7%; cell viability (Calu-3 [3]; 100 nM): 97.4%; cell viability (Calu-3 [3]; 1000 nM): 99.7%; cell viability (Calu-3 [3]; 10000 nM): 55.3%; cell viability (HepG2 [4]; 1 nM): 104%; cell viability (HepG2 [4]; 10 nM): 98.3%; cell viability (HepG2 [4]; 100 nM): 92.1%; cell viability (HepG2 [4]; 1000 nM): 93.7%; cell viability (HepG2 [4]; 10000 nM): 34%; cell viability (U2OS [5]; 1 nM): 98.6%; cell viability (U2OS [5]; 10 nM): 102%; cell viability (U2OS [5]; 100 nM): 93.5%; cell viability (U2OS [5]; 1000 nM): 96%; cell viability (U2OS [5]; 10000 nM): 79%; cell viability (Vero E6 [6]; 1 nM): 104%; cell viability (Vero E6 [6]; 10 nM): 100%; cell viability (Vero E6 [6]; 100 nM): 100%; cell viability (Vero E6 [6]; 1000 nM): 94.6%; cell viability (Vero E6 [6]; 10000 nM): 84.5%; SARS-CoV-2 infection rate ([7]; 0.3 µM): 102%; SARS-CoV-2 infection rate ([7]; 3 µM): 59%; SARS-CoV-2 infection rate ([7]; 10 µM): 25%; SARS-CoV-2 infection rate ([7]; 30 µM): 38%; phospholipidosis EC50 (A549-ACE2 [8]; 24 h): 3.35 µM; phospholipidosis EC50 (A549-ACE2 [8]; 48 h): 4.65 µM; phospholipidosis EC50 (A549-ACE2 [8]; 72 h): 5.61 µM; drug-induced phospholipidosis (A549-ACE2 [9]; 0.3 µM, 24 h): 2.62%; drug-induced phospholipidosis (A549-ACE2 [9]; 0.3 µM, 48 h): 5.45%; drug-induced phospholipidosis (A549-ACE2 [9]; 0.3 µM, 72 h): 4.46%; drug-induced phospholipidosis (A549-ACE2 [9]; 0.833333 µM, 24 h): 7.33%; drug-induced phospholipidosis (A549-ACE2 [9]; 0.833333 µM, 48 h): 7.84%; drug-induced phospholipidosis (A549-ACE2 [9]; 0.833333 µM, 72 h): 5.92%; drug-induced phospholipidosis (A549-ACE2 [9]; 3.33333 µM, 24 h): 44.1%; drug-induced phospholipidosis (A549-ACE2 [9]; 3.33333 µM, 48 h): 36.4%; drug-induced phospholipidosis (A549-ACE2 [9]; 3.33333 µM, 72 h): 27.7%; drug-induced phospholipidosis (A549-ACE2 [9]; 6.66667 µM, 24 h): 86.2%; drug-induced phospholipidosis (A549-ACE2 [9]; 6.66667 µM, 48 h): 96.4%; drug-induced phospholipidosis (A549-ACE2 [9]; 6.66667 µM, 72 h): 95.3%; drug-induced phospholipidosis (A549-ACE2 [9]; 10 µM, 24 h): 90.2%; drug-induced phospholipidosis (A549-ACE2 [9]; 10 µM, 48 h): 115%; drug-induced phospholipidosis (A549-ACE2 [9]; 10 µM, 72 h): 127%; drug-induced phospholipidosis (A549-ACE2 [9]; 30 µM, 24 h): 82%; morphology score ([10]; 0.3 µM): -0.04; morphology score ([10]; 3 µM): 0.67; morphology score ([10]; 10 µM): 0.73; morphology score ([10]; 30 µM): 0.1; relative viability EC50 (Caco-2 [11]): 1.31 µM; relative viability EC50 (HepG2 [13]): 2.38 µM; relative viability EC50 (U2OS [20]): > 10 µM; relative viability EC50 (Vero E6 [14]): > 10 µM; drug sensitivity score (Caco-2 [15]): 5.5; drug sensitivity score (Calu-3 [16]): 2.3; drug sensitivity score (HepG2 [17]): 4.6; drug sensitivity score (U2OS [18]): 1.1; drug sensitivity score (Vero E6 [19]): 0.7
